By IC50 is commonly meant the point on the concentration scale where inhibition reaches its midpoint. Low values mean higher potency, high ones lower potency.

The target in the first assay is purified αllbβ3 receptor (Homo sapiens, UniProt P05106+P08514). Kind of assay: similar competitive binding assay with 125I-echistatin on αllbβ3 receptor, used for the specificity index. The conditions noted are these: Table 10; specificity index IC50 αllbβ3/ IC50 αvβ3. The method, then: To measure the relative affinity of the test compounds for αvβ3 receptors versus affinity for αllbβ3 receptors, similar competitive assays were carried out using purified αllbβ3 receptor and ^125I-echistatin (iodinated using the lactoperoxidase method). The specificity index, which is a measure of the relative binding affinity for αvβ3, versus αllbβ3, may be determined by dividing the IC50 value for αllbβ3 by the IC50 value for αvβ3.
Consider `CCOC(=O)[C@H](C)NC(=O)N(Cc1ccc(C(=O)NC[C@H](NC(=O)OCc2ccccc2)C(=O)O)cc1)Cc1nc2ccccc2[nH]1` [Example 5-50], for which the “SPECIFICITY αIIbβ3 / αvβ3” value worked out at 805.
Still for that read-out and setting: as for `CCOC(=O)[C@@H](NC(=O)N(Cc1ccc(C(=O)NC[C@H](NC(=O)OCc2ccccc2)C(=O)O)cc1)Cc1nc2ccccc2[nH]1)C(C)C` [Example 5-51], the figure is 1210; as for `CCOC(=O)[C@H](Cc1ccccc1)NC(=O)N(Cc1ccc(C(=O)NC[C@H](NC(=O)OCc2ccccc2)C(=O)O)cc1)Cc1nc2ccccc2[nH]1` [Example 5-52], 448; as for `CCOC(=O)[C@H](CC(C)C)NC(=O)N(Cc1ccc(C(=O)NC[C@H](NC(=O)OCc2ccccc2)C(=O)O)cc1)Cc1nc2ccccc2[nH]1` [Example 5-53], 483.
In the case of `CCOC(=O)CCNC(=O)N(Cc1ccc(C(=O)NC[C@H](NC(=O)OCc2ccccc2)C(=O)O)cc1)Cc1nc2ccccc2[nH]1` [Example 5-54], the “SPECIFICITY αIIbβ3 / αvβ3” value turned out to be 413.
Take `O=C(N[C@@H](CNC(=O)c1ccc(CN(Cc2nc3ccccc3[nH]2)C(=S)NC2CCCCC2)cc1)C(=O)O)OCc1ccccc1` [Example 5-55]: the “SPECIFICITY αIIbβ3 / αvβ3” value was found to be 620.
In the case of `COCCNC(=S)N(Cc1ccc(C(=O)NC[C@H](NC(=O)OCc2ccccc2)C(=O)O)cc1)Cc1nc2ccccc2[nH]1` [Example 5-56], the “SPECIFICITY αIIbβ3 / αvβ3” value is 514.

The same assay, now with this note: Table 11; specificity index IC50 αllbβ3/ IC50 αvβ3.
On to `O=C(N[C@H](CNC(=O)c1ccc(CNCc2nc3ccccc3[nH]2)cc1)C(=O)O)OCc1ccccc1` [Example 5-57], for which the “Specificity αllbβ3 / αvβ3” value came to 1.43.
Same read-out and setting: with `COCC(=O)N(Cc1ccc(C(=O)NC[C@@H](NC(=O)OCc2ccccc2)C(=O)O)cc1)Cc1nc2ccccc2[nH]1` [Example 5-58] the figure was 46.
The same measure, in the same setting: with `O=C(N[C@H](CNC(=O)c1ccc(CN(Cc2nc3ccccc3[nH]2)C(=O)CCc2ccccc2)cc1)C(=O)O)OCc1ccccc1` [Example 5-59] the figure was 65.

Still in this assay, the particulars now being: Table 12; specificity index IC50 αllbβ3/ IC50 αvβ3.
As to `CC(C)(C)OC(=O)N[C@@H](CNC(=O)c1ccc(CNCc2nc3ccccc3[nH]2)cc1)C(=O)O` [Example 5-60], the “Specificity αllbβ3 / αvβ3” value was 90.
The same measure, in the same setting: with `CC(=O)N(Cc1ccc(C(=O)NC[C@H](NC(=O)OC(C)(C)C)C(=O)O)cc1)Cc1nc2ccccc2[nH]1` [Example 5-61] the figure was 324; with `COCC(=O)N(Cc1ccc(C(=O)NC[C@H](NC(=O)OC(C)(C)C)C(=O)O)cc1)Cc1nc2ccccc2[nH]1` [Example 5-62], 419.
Same read-out and setting: as for `CC(C)(C)OC(=O)N[C@@H](CNC(=O)c1ccc(CN(Cc2nc3ccccc3[nH]2)C(=O)CCc2ccccc2)cc1)C(=O)O` [Example 5-63], the figure is 293; as for `CC(C)(C)OC(=O)N[C@@H](CNC(=O)c1ccc(CN(Cc2nc3ccccc3[nH]2)C(=O)CCC2CCCC2)cc1)C(=O)O` [Example 5-64], 499.

Still in this assay, the particulars now being: Table 13; specificity index IC50 αllbβ3/ IC50 αvβ3.
In the case of `O=C(O)CC(NC(=O)c1ccc(CNCc2nc3ccccc3[nH]2)cc1)c1ccccc1` (centres unmarked) [Example 5-65], the “Specificity α11bβ3 / αvβ3” value is 0.4.

For the next assay, the target named is T1, αvβ3 receptor (purified from human placenta) (Homo sapiens, UniProt P05106+P06756).
T1 construct: αvβ3 receptor (purified from human placenta); from tissue; host or cells: human placenta
Kind of assay: competition radioligand binding assay, 125I-echistatin to αvβ3 receptor. The conditions noted are these: Table 10; αvβ3, inhibition of specific 125I-echistatin binding. On the procedure: The following assay procedure, which is a competition radioligand binding assay, was carried out to determine the activity of the foregoing compounds as αvβ3 antagonists. The competitive assay procedure described in Kumar, et. al., "Biochemical Characterization Of The Binding Of Echistatin To Integrin αvβ3 Receptor", Journal Of Pharmacology And Experimental Therapeutics, Vol. 283, No. 2, pp. 843-853 (1997) was employed. Thus, binding of ^125I-echistatin (radiolabeled by the chloramine-T method to a specific activity of 2000 Ci/mmol (Amersham, Chicago, Il.)) to αvβ3 receptor (purified from human placenta), both prepared as described in Kumar, et al., was competed by the compounds prepared in the foregoing examples. Purified αvβ3 receptor was coated onto Microlite-2 plates at a concentration of 50 ng/well. ^125I-echistatin was added to the wells to a final concentration of 0.05 nM in binding buffer (50 µl/well) in the presence of the competing test compound. The competing test compounds were employed at serially diluted concentrations ranging from 1 pM to 100 nM. After a 3 hour incubation at room temperature, the wells were washed, and radioactivity, reflecting binding by ^125 I-echistatin to αvβ3 receptors, was determined with Top Count (Packard). Each data point is an average of values from triplicate wells.
Specific binding of ^125I-echistatin was calculated as the difference between the amount of ^125I-echistatin bound in the absence (total binding) and the amount of ^125I-echistatin bound in the presence of a 200-fold molar excess of unlabeled echistatin (nonspecific binding). The efficacy of the test compounds for inhibiting specific binding of ^125I-echistatin to αvβ3 receptors was determined by plotting a graph of specific binding (y-axis) as a function of test compound concentration (x-axis). The concentration of test compound required to inhibit 50% of the specific binding (IC50) was determined from the plot. The IC50 may be directly converted mathematically to Ki, which is a measure of the receptor binding affinity of the compounds under the defined assay conditions.
As to `CCOC(=O)[C@H](C)NC(=O)N(Cc1ccc(C(=O)NC[C@H](NC(=O)OCc2ccccc2)C(=O)O)cc1)Cc1nc2ccccc2[nH]1` [Example 5-50], the IC50 was 3 nM.
With `CCOC(=O)[C@@H](NC(=O)N(Cc1ccc(C(=O)NC[C@H](NC(=O)OCc2ccccc2)C(=O)O)cc1)Cc1nc2ccccc2[nH]1)C(C)C` [Example 5-51], the IC50 was 1.1 nM.
The same measure, in the same setting: with `CCOC(=O)[C@H](Cc1ccccc1)NC(=O)N(Cc1ccc(C(=O)NC[C@H](NC(=O)OCc2ccccc2)C(=O)O)cc1)Cc1nc2ccccc2[nH]1` [Example 5-52] the figure was 4 nM; with `CCOC(=O)[C@H](CC(C)C)NC(=O)N(Cc1ccc(C(=O)NC[C@H](NC(=O)OCc2ccccc2)C(=O)O)cc1)Cc1nc2ccccc2[nH]1` [Example 5-53], 3.8 nM.
For `CCOC(=O)CCNC(=O)N(Cc1ccc(C(=O)NC[C@H](NC(=O)OCc2ccccc2)C(=O)O)cc1)Cc1nc2ccccc2[nH]1` [Example 5-54], the IC50 came out at 2 nM.
As to `O=C(N[C@@H](CNC(=O)c1ccc(CN(Cc2nc3ccccc3[nH]2)C(=S)NC2CCCCC2)cc1)C(=O)O)OCc1ccccc1` [Example 5-55], the half-maximal inhibitory concentration (IC50) stood at 2.5 nM.
For the molecule `COCCNC(=S)N(Cc1ccc(C(=O)NC[C@H](NC(=O)OCc2ccccc2)C(=O)O)cc1)Cc1nc2ccccc2[nH]1` [Example 5-56], the IC50 worked out at 1.6 nM.

The assay is the same for the next values; noted with them: Table 11; αvβ3, inhibition of specific 125I-echistatin binding.
In turn, `O=C(N[C@H](CNC(=O)c1ccc(CNCc2nc3ccccc3[nH]2)cc1)C(=O)O)OCc1ccccc1` [Example 5-57] came in with an IC50 of 1290 nM.
On the same count and under the same terms, as for `COCC(=O)N(Cc1ccc(C(=O)NC[C@@H](NC(=O)OCc2ccccc2)C(=O)O)cc1)Cc1nc2ccccc2[nH]1` [Example 5-58], the figure is 118 nM; as for `O=C(N[C@H](CNC(=O)c1ccc(CN(Cc2nc3ccccc3[nH]2)C(=O)CCc2ccccc2)cc1)C(=O)O)OCc1ccccc1` [Example 5-59], 129 nM.

The same assay, now with this note: Table 12; αvβ3, inhibition of specific 125I-echistatin binding.
The molecule `CC(C)(C)OC(=O)N[C@@H](CNC(=O)c1ccc(CNCc2nc3ccccc3[nH]2)cc1)C(=O)O` [Example 5-60] showed an IC50 of 25 nM.
Same read-out and setting: with `CC(=O)N(Cc1ccc(C(=O)NC[C@H](NC(=O)OC(C)(C)C)C(=O)O)cc1)Cc1nc2ccccc2[nH]1` [Example 5-61] the figure was 17 nM; with `COCC(=O)N(Cc1ccc(C(=O)NC[C@H](NC(=O)OC(C)(C)C)C(=O)O)cc1)Cc1nc2ccccc2[nH]1` [Example 5-62], 30 nM; with `CC(C)(C)OC(=O)N[C@@H](CNC(=O)c1ccc(CN(Cc2nc3ccccc3[nH]2)C(=O)CCc2ccccc2)cc1)C(=O)O` [Example 5-63], 20 nM.
`CC(C)(C)OC(=O)N[C@@H](CNC(=O)c1ccc(CN(Cc2nc3ccccc3[nH]2)C(=O)CCC2CCCC2)cc1)C(=O)O` [Example 5-64] had an IC50 of 16 nM.

Still in this assay, the particulars now being: Table 13; αvβ3, inhibition of specific 125I-echistatin binding.
Regarding `O=C(O)CC(NC(=O)c1ccc(CNCc2nc3ccccc3[nH]2)cc1)c1ccccc1` (centres unmarked) [Example 5-65], the 50% inhibitory concentration (IC50) turned out to be 9230 nM.
